Measurements from patent US20170360795A1, “TREATMENT OF CANCERS USING PI3 KINASE ISOFORM MODULATORS” (INFINITY PHARMACEUTICALS, INC., priority 2013, published 2017).
“Also recorded” adds a separate entry of the source. Marks after values point to notes of the source that are not given here.

Experiments:
CLL cells = assay: production of reactive oxygen species; assay type: cell-based; conditions: n=6
Source text: (FIGS. 35 and 36). […] In addition, this direct inhibitory effect on CLL cells in the lymph nodes could lead to rapid and prolonged responses in cancer patients.

[1] = embryo/fetal developmental toxicity study in rabbits; conditions: female, rabbit, in vivo, 75 mg/kg/day; pregnant rabbits, last day of dosing; read-out: mean AUCO24 hr at the NOAEL
LPN049 and LPN236 = assay: MTT assay, PTEN deficient transgenic T-ALL model cell lines; assay type: cell-based, murine
[2] = tested on: TNF-α and IL-10 production; assay: LPS-stimulated cytokine production in diluted whole blood; assay type: cell-based; conditions: diluted whole blood (1:1), 24 hours pre-treatment, 100 μg/mL LPS
PI3K γ = PI3K γ (Homo sapiens, UniProt P48736); assay: PK/PD: plasma concentration versus PI3K-γ inhibition; assay type: in vivo; conditions: PK/PD in patients
[3] = tested on: hemodynamic and electrocardiographic parameters; assay: Cardiovascular telemetry study; assay type: in vivo, cynomolgus monkey; conditions: up to 150 mg/kg
Source text: Four non-naive, male monkeys implanted with radiotelemetry transmitters were utilized during the conduct of this study.

Ri-1 = assay: cellular growth inhibition assay (72 hour CTG), DLBCL; assay type: cell-based; conditions: Ri-1 (ABC)
PTEN deletion cell lines = assay: sensitivity of PTEN deletion cell lines; assay type: cell-based
[4] = tested on: pPRAS40 and pS6 in CTCL cells; assay: western blotting in CTCL cell lines; assay type: cell-based
Experimental: (§1) MJ and HuT78 cells were grown in IMDM 20% FBS, and HH cells were grown in RPMI 10% FBS.
Cells were washed with fresh media and lysed by adding 1x SDS sample buffer, followed by sonication. After heating the sample at 95-100° C. for 5 minutes and cooling on ice, the sample was microcentrifuged and run on SDS-PAGE. The resulting samples were electrotransfereed to nitrocellulose or PVDF membrane. After washing, the membrane was incubated in blocking buffer for 1 hour at room temperature, followed by washing with TBS/T. The membrane and primary antibodies are then inclubated overnight at 4° C. The membrane was again washed with TBS/T, and incubated with appropriate HRP-conjugated secondary antibodies. For biotinylated primary antibodies, the membrane was incubated with HRP-Streptavidin in milk. Upon completion of the incubation, the membrane was washed with TBS/T and was subjected to detection using LumiGLO®.

OCI-LY-8 = assay: cellular growth inhibition assay, DLBCL; assay type: cell-based
[5] = embryo/fetal developmental toxicity study in rats; conditions: female, rat, in vivo, 35 mg/kg/day; pregnant rats, last day of dosing; read-out: mean AUCO24 hr at the NOAEL
HH cells = assay: CTCL cytotoxicity, 72 hours; assay type: cell-based
Experimental: as §1

[6] = tested on: CD38/CD69 positive CLL cells; assay: phosphospecific flow cytometry of circulating CLL cells in patients; assay type: in vivo, human; conditions: 25 mg BID
Source text: In order to characterize the surface phenotype of the cells present in CLL patients, antibodies against, among others, CD38 and CD69 were included in the panel, and the samples were subjected to phosphor-specific flow cytometry.

hematologic malignancies = assay: Phase 1 dose-escalation study in hematologic malignancies: tumor response; assay type: in vivo, human; conditions: for responses: 8, 15 and 25 mg BID
[7] = tested on: pAKT, pPRAS40 and pS6 in SU-DHL-6, SU-DHL-4 and Ri-1; assay: western blot of PI3K pathway proteins in DLBCL cell lines; assay type: cell-based
Experimental: At 1 hour after the treatment, levels of various proteins were assessed by western blot, the results of which are shown in FIG. 31.
Activation of the PI3K pathway is an important component of normal B-cell receptor (BCR) signaling and has been implicated in the pathogenesis of DLBCL. […] There was rapid modulation of phospho-AKT and phospho-PRAS40 by 30 minutes, whereas modulation of phospho-S6 was not detected until after 8 hours.

SU-DHL-6 = assay: cellular growth inhibition assay (72 hour CTG), DLBCL; assay type: cell-based; conditions: SU-DHL-6 (GCB)
[8] = clinical study in healthy adult subjects: pharmacokinetics; assay type: in vivo, human
[9] = in vivo rat micronucleus assay
human P-glycoprotein = target: T1, human P-glycoprotein (Homo sapiens, UniProt P08183); assay: Caco-2 cell monolayers: membrane permeability and P-glycoprotein interaction; assay type: in vitro ADME
T1 construct: assessed in vitro using Caco-2 cell monolayers; endogenous in cells; host or cells: Caco-2

WSU-DLCL-2 = assay: cellular growth inhibition assay, DLBCL; assay type: cell-based; conditions: WSU-DLCL-2 (GCB)
[10] = Phase 1 dose-escalation study in hematologic malignancies: pharmacokinetics; assay type: in vivo, human; conditions: patients, over the dose range studied
Experimental: PK and PD markers were evaluated after the first dose (e.g., 8 mg BID) and at steady state. PD activity (PI3K inhibition) in whole blood was evaluated using a basophil activation assay which measured reduction in CD63 expression on the surface of basophils following ex vivo stimulation.

[11] = time-course in selected DLBCL cell lines

T1 sequence (P08183 whole entry): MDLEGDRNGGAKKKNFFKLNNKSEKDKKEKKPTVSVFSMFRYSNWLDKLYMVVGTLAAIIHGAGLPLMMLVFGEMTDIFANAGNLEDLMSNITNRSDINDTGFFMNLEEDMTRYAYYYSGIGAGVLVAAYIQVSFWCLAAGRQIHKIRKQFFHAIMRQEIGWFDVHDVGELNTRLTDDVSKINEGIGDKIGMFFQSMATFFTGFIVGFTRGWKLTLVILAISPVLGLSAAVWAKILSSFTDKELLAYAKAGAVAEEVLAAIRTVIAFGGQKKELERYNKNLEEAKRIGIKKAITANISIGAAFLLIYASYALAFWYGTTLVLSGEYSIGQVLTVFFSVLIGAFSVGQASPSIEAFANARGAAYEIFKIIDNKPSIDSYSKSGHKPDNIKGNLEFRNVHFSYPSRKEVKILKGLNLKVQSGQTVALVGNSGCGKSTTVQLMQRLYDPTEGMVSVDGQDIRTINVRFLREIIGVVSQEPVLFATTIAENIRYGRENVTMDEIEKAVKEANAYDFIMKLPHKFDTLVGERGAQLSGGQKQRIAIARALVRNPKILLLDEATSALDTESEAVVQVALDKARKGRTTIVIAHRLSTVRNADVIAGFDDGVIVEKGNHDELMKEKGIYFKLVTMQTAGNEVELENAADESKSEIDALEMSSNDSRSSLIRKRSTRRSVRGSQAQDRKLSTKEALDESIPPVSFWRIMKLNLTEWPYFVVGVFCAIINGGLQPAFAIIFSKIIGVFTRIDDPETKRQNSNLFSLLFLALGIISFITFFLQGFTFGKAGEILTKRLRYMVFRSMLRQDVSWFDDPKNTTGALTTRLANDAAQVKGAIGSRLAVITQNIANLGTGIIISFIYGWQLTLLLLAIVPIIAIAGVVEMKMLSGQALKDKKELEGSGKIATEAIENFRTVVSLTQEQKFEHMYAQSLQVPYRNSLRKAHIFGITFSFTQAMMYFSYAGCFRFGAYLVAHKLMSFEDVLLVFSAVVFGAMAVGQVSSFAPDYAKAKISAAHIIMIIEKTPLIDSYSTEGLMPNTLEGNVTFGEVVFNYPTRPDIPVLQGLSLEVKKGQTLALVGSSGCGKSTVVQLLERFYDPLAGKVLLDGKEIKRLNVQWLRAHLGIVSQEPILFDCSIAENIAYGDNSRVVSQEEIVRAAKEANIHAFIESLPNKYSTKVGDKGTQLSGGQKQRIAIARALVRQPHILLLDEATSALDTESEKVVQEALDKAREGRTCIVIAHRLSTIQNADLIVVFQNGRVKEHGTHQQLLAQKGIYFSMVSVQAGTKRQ
Chain of PI3K γ (P48736 whole entry): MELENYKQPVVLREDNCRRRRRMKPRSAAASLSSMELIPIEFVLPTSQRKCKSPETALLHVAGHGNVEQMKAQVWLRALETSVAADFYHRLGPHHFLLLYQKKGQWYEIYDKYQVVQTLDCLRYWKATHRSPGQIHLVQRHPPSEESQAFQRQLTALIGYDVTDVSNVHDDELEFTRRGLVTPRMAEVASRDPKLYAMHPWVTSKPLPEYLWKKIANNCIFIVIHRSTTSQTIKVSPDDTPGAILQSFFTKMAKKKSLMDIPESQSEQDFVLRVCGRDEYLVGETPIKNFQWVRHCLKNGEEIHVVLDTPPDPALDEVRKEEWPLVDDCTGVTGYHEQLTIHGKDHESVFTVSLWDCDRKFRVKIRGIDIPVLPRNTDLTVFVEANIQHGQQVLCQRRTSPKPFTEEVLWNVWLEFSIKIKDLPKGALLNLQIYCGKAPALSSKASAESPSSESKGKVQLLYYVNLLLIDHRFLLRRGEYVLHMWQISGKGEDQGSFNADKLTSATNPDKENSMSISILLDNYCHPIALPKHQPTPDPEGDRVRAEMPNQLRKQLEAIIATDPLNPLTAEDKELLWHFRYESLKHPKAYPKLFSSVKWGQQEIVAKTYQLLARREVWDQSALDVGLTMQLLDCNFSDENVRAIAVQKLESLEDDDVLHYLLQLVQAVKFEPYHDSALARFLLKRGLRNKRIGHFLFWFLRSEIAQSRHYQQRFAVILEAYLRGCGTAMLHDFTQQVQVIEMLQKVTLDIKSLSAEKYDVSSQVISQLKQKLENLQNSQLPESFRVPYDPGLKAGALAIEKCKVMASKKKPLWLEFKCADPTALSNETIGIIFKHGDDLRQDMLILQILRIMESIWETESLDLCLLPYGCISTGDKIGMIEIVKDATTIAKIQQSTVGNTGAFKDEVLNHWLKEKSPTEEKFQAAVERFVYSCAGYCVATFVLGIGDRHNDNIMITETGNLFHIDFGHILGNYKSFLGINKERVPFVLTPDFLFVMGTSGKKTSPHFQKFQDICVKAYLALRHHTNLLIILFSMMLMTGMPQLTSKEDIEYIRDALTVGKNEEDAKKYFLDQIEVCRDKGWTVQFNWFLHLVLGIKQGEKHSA

C[C@H](Nc1ncnc2[nH]cnc12)c1cc2cccc(Cl)c2c(=O)n1-c1ccccc1 [Compound 292]
production of reactive oxygen species (CLL cells): enhanced | AUC [1]: 66200 ng·h/mL | sensitivity by MTT assay (LPN049 and LPN236): sensitive | cytokine (TNF-α and IL-10) production [2]: inhibition | doses that increasingly suppress PI3K-γ (PI3K γ): ≥ 25 mg BID | waveform abnormalities or arrhythmias [3]: no waveform abnormalities or arrhythmias | sensitivity in cellular growth inhibition assay (Ri-1): more sensitive; also recorded: nanomolar (nM) range | sensitivity (PTEN deletion cell lines; 145 subsets of PTEN deletion cell lines): differentially susceptible | sensitivity (PTEN deletion cell lines; PTEN wild type cells): not sensitive | level of pPRAS40 ([4]; HH, HuT78 and MJ cells, western blotting): dose dependently reduced | pS6 ([4]; resistant MJ cells): not modulated | IC50, cellular growth inhibition (OCI-LY-8; OCI-LY-8 (GCB), without BCR crosslinking): low micromolar (μM) range | sensitivity in cellular growth inhibition assay (OCI-LY-8; OCI-LY-8 with BCR crosslinking): nM range | AUC [5]: 62200 ng·h/mL | cytotoxicity, sensitivity (HH cells): more sensitive | CD38 positive, CD69 positive and CD38/CD69 double positive circulating CLL cells [6]: significant reductions | responders with response by first assessment (within about 2 months) (hematologic malignancies; B cell lymphoma, 16 out of 18 responders): 89% | Time to Response in Months Median (range) (hematologic malignancies; CLL/SLL (11 evaluable)): 2.9 (1.8, 5.6) Months | Best Observed Response: SD (hematologic malignancies; CLL/SLL (11 evaluable), four nodal responses): 4 ^c n | responses (hematologic malignancies; CLL/SLL): 2/3 | Median Time to Response in Months (range) (hematologic malignancies; CTCL (T/E 10/4)): 1.7 (—) ^ Months | Time to Response in Months Median (range) (hematologic malignancies; HL (2 evaluable)): 1.7 (1.7, 1.7) Months | Median Time to Rsp in Months (Range) (hematologic malignancies; HL (T/E 3/3)): 1.7 Months | Time to Response in Months Median (range) (hematologic malignancies; MCL (3 evaluable)): 1.9 (1.9, 1.9) Months | Median Time to Rsp in Months (Range) (hematologic malignancies; MCL (T/E 9/6)): 1.8 (1.6-1.9) Months | Median Time to Response in Months (range) (hematologic malignancies; PTCL (T/E 7/5)): 2.3 (1.9-2.7) Months | patients with at least 50% tumor response (CT scans) (hematologic malignancies; T cell lymphoma (2 PTCL and 1 CTCL)): 33% | Time to Response in Months Median (range) (hematologic malignancies; T-Cell Lymphoma (6 evaluable)): 2.4 (1.8, 3.1) Months | Median Time to Response in Months (range) (hematologic malignancies; TCL Total (T/E 17/9)): 1.9 (1.7-2.7) Months | Time to Response in Months Median (range) (hematologic malignancies; iNHL (13 evaluable)): 1.8 (1.7, 2.8) Months | Median Time to Rsp in Months (Range) (hematologic malignancies; iNHL (T/E 26/19)): 1.8 (1.7-4.1) Months | responses (hematologic malignancies; iNHL): 1/2 | levels of pAKT, pPRAS40 and pS6 ([7]; 0.001-1 μM, 1 hour, western blot, SU-DHL-6, SU-DHL-4 and Ri-1): decrease | time to detection of modulation of phospho-S6 [7, 11]: > 8 h | time to modulation of phospho-AKT and phospho-PRAS40 [7, 11]: ≤ 30 min | sensitivity in cellular growth inhibition assay (SU-DHL-6): more sensitive; also recorded: nanomolar (nM) range | accumulation ([8]; 14 days of Q12 h oral administration): less than 2 fold | exposure versus dose ([8]; across the dose ranges evaluated): increased proportionally to dose | direct adverse effect in micronucleus assay [9]: no direct adverse effect | dose limiting toxicity (15 mg BID cohort): Grade 4 neutropenia | new Grade >3 neutropenia (20 patients, 8-50 mg BID): 6 (30%) n (%) | new Grade >3 thrombocytopenia (20 patients, 8-50 mg BID): 1 (5%) n (%) | patients with AEs Grade >3 (20 patients, 8-50 mg BID): 7 (35%) n (%) | patients with adverse events (AEs) (20 patients, 8-50 mg BID): 13 (65%) n (%) | Grade 3 ALT/AST elevations (20 patients, MM patient, onset 6 weeks after initiation of dosing): 1 (5%) n (%) | cell membrane permeability (human P-glycoprotein): moderate | inhibition of active transport of other P-gp substrates (human P-glycoprotein): has the potential to inhibit the active transport of other P-gp substrates | IC50, cellular growth inhibition (WSU-DLCL-2): low micromolar (μM) range | plasma Cmax and AUC versus dose [10]: dose-proportional increases
